# Laboratory results as given in patent US20140031388A1, “AKT INACTIVATION BY TOCOPHERYL DERIVATIVES” (priority 2012, published 2014).
# Where two headings read alike, the source gives them in different places.
# Assays:
# PC-3 cells = test: MTT viability assay, PC-3; format: cell-based; conditions: Homo sapiens
# Experimental: (§1) The prostate cancer cell lines, LNCaP and PC-3, were purchased from American Type Culture Collection (Manassas, Va.) and maintained in RPMI 1640 medium containing 10% heat-inactivated fetal bovine serum at 37° C. in a humidified incubator containing 5% CO2. The LNCaP-abl cells were a generous gift from Dr. Qianben Wang (The Ohio State University). Normal prostate epithelial cells were purchased from Lonza (Walkersville, Md.) and were cultured in the vendor-recommended defined prostate epithelial cell growth medium. For experiments, LNCaP cells were plated on poly-D-lysine-coated culture flasks at a density of 12,000 cells per cm^2 surface area for 24 hours, followed by treatment with test agents in serum-free RPMI 1640 medium. The α- and γ-tocopherols were purchased from Sigma-Aldrich (St. Louis, Mo.). The tocopherol derivatives, α- and γ-VE5, were synthesized by the inventors.
# LNCaP cells were plated into poly-D-lysine-coated 96-well plates and PC-3 and LNCaP-abl cells into uncoated plates at the density of 5,000 cells per well in the presence of 10% FBS. Normal prostate epithelial cells were plated into uncoated plates at a density of 8,000 cells per well. […] After 24 hours of treatment, cells were incubated with MTT [3-(4,5-dimethylthiazol-2-yl)-2,5-diphenyl-2H-tetrazolium bromide] (TCI America; 0.5 mg/ml, final concentration) for an additional 2 hours. The medium was then removed from each well and replaced with DMSO to dissolve the reduced MTT dye for subsequent colorimetric measurement of absorbance at 595 nm. Cell viabilities are calculated as percentages of that in the corresponding vehicle-treated control group.
# [1] = system: Normal prostate epithelial cells; test: Viability / apoptosis in normal prostate epithelial cells; format: cell-based; conditions: Epithelial cell
# Experimental: as §1
# LNCaP cells were plated into poly-D-lysine-coated 96-well plates and PC-3 and LNCaP-abl cells into uncoated plates at the density of 5,000 cells per well in the presence of 10% FBS. Normal prostate epithelial cells were plated into uncoated plates at a density of 8,000 cells per well. Exposure to test agents in serum-free medium was initiated 24 hours later. After 24 hours of treatment, cells were incubated with MTT [3-(4,5-dimethylthiazol-2-yl)-2,5-diphenyl-2H-tetrazolium bromide] (TCI America; 0.5 mg/ml, final concentration) for an additional 2 hours. The medium was then removed from each well and replaced with DMSO to dissolve the reduced MTT dye for subsequent colorimetric measurement of absorbance at 595 nm. Cell viabilities are calculated as percentages of that in the corresponding vehicle-treated control group.
# [2] = target: T1, PH domain of PHLPP1 (GST-PH domain fusion protein) (Homo sapiens, UniProt O60346); test: Surface plasmon resonance binding, PHLPP1 PH domain; conditions: SPR; means (n = 3) ± SD; read-out: Kd, PHLPP1 PH domain
# T1 construct: made in house
# T1 sequence (O60346 536-636 limits assumed): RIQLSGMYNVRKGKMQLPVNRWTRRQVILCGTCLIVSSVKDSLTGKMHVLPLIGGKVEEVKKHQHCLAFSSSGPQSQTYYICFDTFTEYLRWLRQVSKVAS
# Description: (§2) The cDNA fragments corresponding to the putative PH domain sequences of PHLPP1 (+115 to +372), PDK1 (+1225 to +1671), Akt1 (+1 to +447) and ILK (+538 to +646) were PCR-amplified using the plasmids pcDNA-HA-PHLPP1, pWZL-Neo-Myr-FLAG-PDPK1, pcDNA-HA-PKB-T308D-S473D, and pCMV-SPORT-ILK (Addgene) as templates. The PCR products were then cloned into EcoRI/XhoI sites of the pGEX-4T1 expression vector (GE Healthcare Life Sciences) to generate four constructs (pGEX-4T1-PHLPP1, pGEX-4T1-PDPK1, pGEX-4T1-AKT1, pGEX-4T1-ILK) for the expression of GST-PH domain fusion proteins. The mutated Akt1 Y38G PH domain was generated from pGEX-4T1-AKT1 by site-directed mutagenesis using the QuikChange II XL Site-Directed Mutagenesis Kit (Agilent Technologies). The expression and purification of GST-PH domain fusion proteins were performed essentially as described previously. Thomas et al., Curr Biol 12, 1256 (2002). The purified PH domains were analyzed by SDS-PAGE using an overloaded gel with purities were estimated to be >95% using ImageJ software.
# (§3) Binding experiments were performed using a Biacore T100 system (GE Healthcare, Piscataway, N.J.). The GST-PH domain fusion proteins were immobilized on a CM5 S Sensorchip using Biacore's Amine Coupling Kit to a level of 17,000 response units. VE5 compounds and di-octanoyl PIP3 at concentrations ranging from 0.1 to 100 μM and 1 to 20 μm, respectively, were injected at a high flow rate (30 μL/min) over the biosensor surface for binding analyses. DMSO concentrations in all samples and running buffer were 1% (v/v) or less. Data were analyzed using Biacore T100 Evaluation Software.
# [3] = target: T2, PH domain of ILK (GST-PH domain fusion protein) (Homo sapiens, UniProt Q13418); test: Surface plasmon resonance binding, ILK PH domain; conditions: SPR; means (n = 3) ± SD; read-out: Kd, ILK PH domain
# T2 construct: made in house
# T2 sequence (Q13418 180-212 limits assumed): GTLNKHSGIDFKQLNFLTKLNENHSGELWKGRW
# Description: as §2, §3
# [4] = system: phosphorylation of Ser473 in Akt; test: Western blot of Akt phosphorylation at Ser473; format: cell-based; conditions: LNCaP and PC-3 cells, Thr308 not altered
# Experimental: Cells were exposed to the test agents in 10-cm dishes for 24 hours and then collected by scraping. The cell pellets were washed once with PBS, and then lysed at 4° C. over 30 min of incubation in a sodium dodecyl sulfate (SDS) lysis buffer containing 1% SDS, 50 mM Tris HCl (pH 8.1), 10 mM EDTA and […] protease inhibitor cocktail (Sigma-Aldrich). The cell debris was pelleted by centrifugation for 20 min at 14,000×g, and 1 μl of each supernatant was used for determination of protein concentration using a colorimetric bicinchoninic assay (Pierce, Rockford, Ill.). The remaining sample was added to equal volume of 2×SDS-polyacrylamide gel electrophoresis sample loading buffer (62.5 mM Tris-HCl, pH 6.8, 4% SDS, 5% β-mercaptoethanol, 20% glycerol, 0.1% bromophenol blue), followed by incubation in boiling water for 5 min. Equivalent amounts of total protein were resolved in SDS-polyacrylamide gels, and then transferred to nitrocellulose membranes using a semidry transfer cell. The transblotted membrane was washed twice with Tris-buffered saline containing 0.1% Tween 20 (TBST). After blocking with TBST containing 5% nonfat milk for 40 min, the membrane was incubated with the appropriate primary antibody (1:1000) in TBST-1% nonfat milk at 4° C. overnight. The membrane was then washed three times with TBST for a total of 15 min, followed by incubation with goat anti-rabbit or anti-mouse IgG-horseradish peroxidase conjugates (1:2000) for 1 hour at room temperature and four washes with TBST for a total of 1 hour. The immunoblots were visualized by enhanced chemiluminescence (GE Healthcare Life Sciences).
"IC50 (PC-3 cells; PC-3, 1% FBS-containing or serum-free RPMI 1640 medium for 24 h, read-out: IC50 (μM) PC-3)",Kd [2],Kd [3],"IC50 (PC-3 cells; PC-3, 24 h, 1% FBS-containing or serum-free RPMI 1640 medium for 24 h, read-out: IC50 (μM) PC-3)","IC50 (PC-3 cells; PC-3, Table 3, antitumor activities against PC-3 cells, read-out: IC50)",Structure (SMILES),IC50 [1],effect on phosphorylation of Akt at Ser473 [4]
15 µM,3.1 ± 0.3 µM,26.6 ± 1 µM,,,"Cc1c(C)c2c(c(C)c1O)CC[C@@](C)(CCCC(C)C)O2 [α-VE5, (R)-2,5,7,8-tetramethyl-2-(4-methylpentyl)-chroman-6-ol]",~50 µM,parallel reduction
,0.7 ± 0.1 µM,18.7 ± 4.5 µM,8 µM,8.5 µM,"Cc1c(O)cc2c(c1C)O[C@](C)(CCCC(C)C)CC2 [γ-VE5, (R)-2,7,8-trimethyl-2-(4-methylpentyl)-chroman-6-ol]",~40 µM,parallel reduction
